Tests used:
[1] = in vitro; settings: chlorocebus sabaeus, Vero E6 (Vero C1008) cells
[2] = tested on: SARS-CoV-2; experiment: microbe, parasite or virus in culture; assay type: functional, organism-based, Chlorocebus sabaeus, Vero C1008; settings: Severe acute respiratory syndrome coronavirus 2, Vero C1008, 48 h
[3] = tested on: SARS-CoV-2; experiment: microbe, parasite or virus in culture; settings: Severe acute respiratory syndrome coronavirus 2, Vero C1008, 48 h

SMILES | CC50 at 48 h ([1]; CC50) [µM] | CC50 at 48 h ([1]; pCC50) [µM] | IC50 ([2]; read-out: IC50) [µM] | IC50 ([2]; read-out: pIC50 (converted)) [µM] | IC50 [3] [µM] | IC50 ([3]; read-out: pIC50 (converted)) [µM]
COc1ccc(C[C@@H]2c3cc(OC)c(OC)cc3CC[N@+]2(C)CCC(=O)OCCCCCOC(=O)CC[N@@+]2(C)CCc3cc(OC)c(OC)cc3[C@H]2Cc2ccc(OC)c(OC)c2)cc1OC | > 20 | > 20 | > 20 | > 20 | – | –
CN(C)C/C=C(\c1ccc(Br)cc1)c1cccnc1 | > 10 | > 10 | – | – | > 20 | > 20
CN1[C@@H]2CC[C@H]1CC(OC(c1ccccc1)c1ccccc1)C2 (some centres not stated) | ~46.8 | ~46.8 | – | – | – | –
CCOc1ccc(-n2c([C@@H](C)N(Cc3cccnc3)C(=O)Cc3ccc(OC(F)(F)F)cc3)nc3ncccc3c2=O)cc1 (racemic) | – | – | > 20 | > 20 | > 20 | > 20
CN1CC[C@H](c2c(O)cc(O)c3c(=O)cc(-c4ccccc4Cl)oc23)[C@H](O)C1 [ALVOCIDIB] | – | – | > 10 | > 10 | > 20 | > 20
CC(C)[C@H](C(=O)Nc1ccc(C(=O)NO)cc1)c1ccccc1 [AR-42] | 0.851 | 0.851 | – | – | > 20 | > 20
O=C1CCc2ccc(OCCCCN3CCN(c4cccc(Cl)c4Cl)CC3)cc2N1 [ARIPIPRAZOLE] | 11.4 | 11.2 | – | – | – | –
COc1ccc(CCN2CCC(Nc3nc4ccccc4n3Cc3ccc(F)cc3)CC2)cc1 [ASTEMIZOLE] | 7.5 | 7.41 | – | – | – | –
CC[C@@H]1C(=O)N(C)c2cnc(Nc3ccc(C(=O)NC4CCN(C)CC4)cc3OC)nc2N1C1CCCC1 [BI-2536] | 0.603 | 0.603 | – | – | – | –
COc1nc(N)nc2c1ncn2[C@@H]1O[C@H](COP(=O)(N[C@@H](C)C(=O)OCC(C)(C)C)Oc2cccc3ccccc23)[C@@H](O)[C@@]1(C)O (some centres not stated) [BMS-986094] | – | – | > 20 | > 20 | > 20 | > 20
Cc1c(-c2ccc(-c3ccccc3F)cc2)nc2ccc(F)cc2c1C(=O)O [BREQUINAR] | – | – | > 20 | > 20 | > 20 | > 20
CN(C)C(=O)COC(=O)Cc1ccc(OC(=O)c2ccc(NC(=N)N)cc2)cc1 [CAMOSTAT] | – | – | > 100 | > 100 | > 20 | > 20
CC1(C)S[C@@H]2[C@H](NC(=O)C(C(=O)O)c3ccccc3)C(=O)N2[C@H]1C(=O)O (some centres not stated) [CARBENICILLIN] | > 20 | > 20 | > 20 | > 20 | – | –
CO/N=C(\C(=O)N[C@@H]1C(=O)N2C(C(=O)OC(C)OC(C)=O)=C(COC(N)=O)CS[C@H]12)c1ccco1 (some centres not stated) [CEFUROXIME AXETIL] | > 20 | > 20 | > 20 | > 20 | – | –
CCN(CC)CCOc1ccc(C(=C(Cl)c2ccccc2)c2ccccc2)cc1 [CLOMIPHENE] | – | – | > 20 | > 20 | > 20 | > 20
CN(C)CCCN1c2ccccc2CCc2ccc(Cl)cc21 [CLOMIPRAMINE] | 16 | 15.8 | – | – | – | –
COc1cc2c(c(OC)c1OC)-c1ccc(OC)c(=O)cc1[C@@H](NC(C)=O)CC2 [COLCHICINE] | – | – | > 100 | > 100 | > 100 | > 100
Nc1ccn([C@@H]2O[C@H](CO)[C@@H](O)[C@@H]2O)c(=O)n1 [CYTARABINE] | – | – | > 20 | > 20 | > 50.1 | > 50.1
